# Experimental data: patent US12251422B2, “Compositions and methods for treating neurological and other disorders” (Rush University Medical Center, priority 2018, dated 2025)
# What was measured:
# TNFα and IL-1β = TNFα and IL-1β ELISA in supernatants of WT primary microglia; type: cell-based, mouse; details: peptide 1 h, 1 μM fibrillar Aβ1-42 for 18 h
# Protocol: FIG. 16 (A-F). […] Primary microglia isolated from WT (A) and TLR2 (−/−) (B) mice were treated with different concentrations of wtTIDM peptide for 1 h followed by stimulation with 1 μM fibrillar Aβ1-42 under serum-free condition. After 1 h of stimulation, the activation of NF-κB was monitored by EMSA. WT (C & D) and TLR2 (−/−) (E & F) microglia were treated with different concentrations of wtTIDM and mTIDM peptides for 1 h followed by stimulation with 1 μM fibrillar Aβ1-42 under serum-free condition. After 18 h of stimulation, levels of TNFα (C & E) and IL-1β (D & F) were monitored in supernatants by ELISA (n=2 replicates/condition in 3 independent experiments). ap<0.001 vs control; bp<0.001 vs stimuli by two-sample t-tests.
# 5×FAD Tg mice [1] = assay: Glial activation and NF-κB in hippocampus of 5×FAD Tg mice; type: in vivo, mouse; details: 0.1 mg/kg body wt/2 d intranasal, 30 d
# Text: (§1) FIG. 5 (A-Q). […] Actin was run as loading control. […] M) Hippocampal sections were immunolabeled with 82E1 mAb. […] Arrowhead indicates 4 kDa Aβ band.
# FIG. 18 (A-B). After intranasal delivery, wtTIDM peptide suppresses the activation of NF-κB in the hippocampus of Tg mice. […] After 30 d of treatment, hippocampal extracts of all groups of mice were immunoblotted for phospho-p65 (A). Actin was run as loading control.
# FIG. 19. Intranasal delivery of wtTIDM, but not mTIDM, peptide suppresses microglial expression of iNOS in the hippocampus of Tg mice. […] After 30 d of treatment, mice were sacrificed and hippocampal sections were double-labeled for Iba-1 and iNOS. Results represent analysis of two sections from each of six different mice per group.
# (§2) B6SJL-Tg (APPSwFlLon,PSEN1*M146L*L286V) 6799Vas/J transgenic (5×FAD or termed here as Tg) mice were purchased from Jackson Laboratories (Bar Harbor, ME). […] Briefly, TIDM peptides were dissolved in 5 μl normal saline, mice were hold in supine position and saline was delivered into one nostril using a pipetman.
# Mice were anesthetized with ketamine-xylazine injectables and perfused with PBS and then with 4% (w/v) paraformaldehyde in PBS followed by dissection of the brain from each mouse for immunofluorescence microscopy (23, 59). […] The samples were mounted and observed under an Olympus IX81 fluorescence microscope. […]
# [2] = biological target: T1, interaction between newly-formed cTLR2 and MyD88 (Mus musculus, UniProt Q9QUN7); assay: MyD88 immunoprecipitation / c-Myc western blot in BV-2 cells transduced with pLenti-cMyc-cTlr2; type: cell-based; details: transduced BV-2 cells, fibrillar Aβ1-42 for 1 h
# T1 construct: The cTLR2 (640-784 amino acids) tagged with c-myc was cloned in lenti vector; expressed in transfected cells; host or cells: BV-2 microglial cells transduced with pLenti-cMyc-cTlr2 lentivirions
# [3] = biological target: T2, association between TLR2 and MyD88 (Mus musculus, UniProt Q9QUN7); assay: MyD88 immunoprecipitation / TLR2 western blot in BV-2 microglial cells; type: cell-based; details: BV-2 cells, peptides preincubated 1 h, 1 μM fibrillar Aβ1-42 for 1 h, serum-free
# T2 construct: disrupt the physical association between endogenous TLR2 and MyD88; endogenous in cells; host or cells: BV-2 microglial cells
# Protocol: FIG. 3(A-L). Selective disruption of TLR2 and MyD88 interaction by wtTIDM. In silico analyses of interactions of wtTIDM with TLR1, TLR4, TLR5, TLR6, TLR7, and TLR9. A rigid body interaction analyses were performed in pydock in silico analysis tool. […] G) BV-2 microglial cells preincubated with WtTIDM and mTIDM peptides for 1 h were stimulated with 1 μM fibrillar Aβ1-42 under serum-free condition. After 1 h, cellular extracts were immunoprecipitated with anti-MyD88 antibody followed by western blot of immunoprecipitates for TLR2. As control, cellular extracts were immunoprecipitated with normal IgG. Input was also immunoblotted with TLR2 and MyD88. H) Bands were scanned and values (TLR2/Input) presented as relative to control (n=2 replicates/condition in 3 independent experiments). Results were analyzed by two-sample t-tests. I) BV-2 microglial cells preincubated with wtTIDM and mTIDM peptides for 1 h were stimulated with LPS under serum-free condition. After 1 h, cellular extracts were immunoprecipitated with anti-MyD88 antibody followed by western blot of immunoprecipitates for TLR4. As control, cellular extracts were immunoprecipitated with normal IgG. Input was also immunoblotted with TLR4 and My D88. […] Results were analyzed by two-sample t-tests. […] Results were analyzed by two-sample t-tests.
# 5×FAD Tg mice [4] = assay: Amyloid plaque / Aβ load in 5×FAD Tg mice; type: in vivo, mouse; details: 0.1 mg/kg body wt/2 d intranasal, 30 d
# Protocol: as §1
# FIG. 20 (A-B). Intranasal delivery of wtTIDM, but not mTIDM, peptide lowers the burden of amyloid plaques in the hippocampus of Tg mice. […] Actin was run as loading control. […] Results were analyzed by two-sample t-tests.
# FIG. 21 (A-F). Intranasal delivery of wtTIDM, but not mTIDM, peptide reduces the levels of Aβ1-40 and Aβ1-42 in serum and hippocampus of Tg mice. […] After 30 d of treatment. ELISA quantification of Aβ1-40 (A, C & E) and Aβ1-42 (B, D & F) was performed in serum (A & B) and TBS (C & D) and (TBS+Triton X-100) (E & F) extracted hippocampal tissues. Six mice (n=6 per group) were used in two independent experiments. ap<0.01 & cp<0.001 versus non-Tg; bp<0.01 & dp<0.001 versus Tg by two-sample t-tests.
# as §2
# Hippocampal tissues were homogenized in TBS, pelleted for 30 min×150,000 g. […]
# T2 sequence (Q9QUN7 25-784): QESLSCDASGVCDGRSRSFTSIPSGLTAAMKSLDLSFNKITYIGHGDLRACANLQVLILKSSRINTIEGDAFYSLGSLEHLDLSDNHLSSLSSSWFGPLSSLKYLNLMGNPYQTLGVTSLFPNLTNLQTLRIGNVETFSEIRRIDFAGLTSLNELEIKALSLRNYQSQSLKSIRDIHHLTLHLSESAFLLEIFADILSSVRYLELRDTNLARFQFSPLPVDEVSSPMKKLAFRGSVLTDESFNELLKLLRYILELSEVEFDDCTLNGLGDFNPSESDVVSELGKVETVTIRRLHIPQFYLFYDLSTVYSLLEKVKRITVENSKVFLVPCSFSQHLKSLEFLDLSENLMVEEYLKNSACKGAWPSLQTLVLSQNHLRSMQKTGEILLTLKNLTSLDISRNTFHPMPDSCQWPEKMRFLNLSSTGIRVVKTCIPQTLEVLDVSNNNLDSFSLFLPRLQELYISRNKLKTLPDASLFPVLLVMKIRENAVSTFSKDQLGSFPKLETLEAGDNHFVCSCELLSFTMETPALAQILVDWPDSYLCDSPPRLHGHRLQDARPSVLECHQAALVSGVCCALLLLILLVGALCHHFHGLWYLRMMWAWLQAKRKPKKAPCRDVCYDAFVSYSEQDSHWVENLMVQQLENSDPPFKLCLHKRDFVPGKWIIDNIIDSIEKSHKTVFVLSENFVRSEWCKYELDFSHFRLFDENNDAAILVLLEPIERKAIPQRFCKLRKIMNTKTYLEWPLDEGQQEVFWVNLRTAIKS
# T1 sequence (Q9QUN7 640-784): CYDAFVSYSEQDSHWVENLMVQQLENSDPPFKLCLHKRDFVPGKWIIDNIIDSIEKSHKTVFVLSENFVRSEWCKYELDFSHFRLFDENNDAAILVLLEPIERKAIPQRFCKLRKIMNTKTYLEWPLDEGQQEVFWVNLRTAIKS
structure (smiles),measurement,setting,value
"CC[C@H](C)[C@H](NC(=O)[C@H](CCCCN)NC(=O)[C@@H](NC(=O)[C@H](CCC(N)=O)NC(=O)[C@H](CCCNC(=N)N)NC(=O)[C@@H](N)CC(=O)O)[C@@H](C)CC)C(=O)N[C@@H](Cc1c[nH]c2ccccc12)C(=O)N[C@@H](Cc1ccccc1)C(=O)N[C@@H](CCC(N)=O)C(=O)N[C@@H](CC(N)=O)C(=O)N[C@@H](CCCNC(=N)N)C(=O)N[C@@H](CCCNC(=N)N)C(=O)N[C@@H](CCSC)C(=O)N[C@@H](CCCCN)C(=O)N[C@@H](Cc1c[nH]c2ccccc12)C(=O)N[C@@H](CCCCN)C(=O)N[C@@H](CCCCN)C(=O)N1CCC[C@H]1C(=O)NCC(=O)N[C@@H](C)C(=O)N[C@@H](Cc1c[nH]cn1)C(=O)N[C@@H](CCC(N)=O)C(=O)N[C@@H](CCCCN)C(=O)O [wtTIDM, drqikiwfqnrrmkwkkPGAHQK]",inhibition of fibrillar Aβ1-42-induced production of TNFα and IL-1β in WT microglia,TNFα and IL-1β,inhibited
same,Iba-1 and phospho-p65 in the hippocampus,5×FAD Tg mice [1],suppression
same,expression of iNOS in the hippocampus,5×FAD Tg mice [1],suppressed
same,inhibition of interaction between newly-formed cTLR2 and MyD88,[2],inhibited
same,inhibition of fibrillar Aβ1-42-increased association between TLR2 and MyD88,[3],inhibited
same,"Aβ (plaques, Western blot, ELISA of Aβ1-40 and Aβ1-42 in serum and hippocampus)",5×FAD Tg mice [4],significant decrease
